# pEC50: −log10 of the molar value.
# Assay: Modulation of p-gp (unknown origin) transfected in human MDA435/LCC6MDR cells assessed as reversal of paclitaxel resistance
row,pEC50,SMILES
1,6.96,COc1ccc(C2=C(c3cc(OC)c(OC)c(OC)c3)C(=O)N(CC(=O)c3ccc(OCc4ccccc4)c(OC)c3)C2=O)cc1OC
2,7.03,COc1ccc(C2=C(c3ccc(OC)c(OC)c3)C(=O)N(CC(=O)c3ccc(OCc4ccccc4)c(OC)c3)C2=O)cc1OC

# Source: BindingDB's records for doi:10.1021/jm400930e (Ocean University of China, 2013)
